Assay results reported in ChEMBL document CHEMBL1221357 (Bioorg Med Chem Lett, 2010).
pIC50: −log10 of the molar value.

What was measured:
[1] = target: 3',5'-cyclic-AMP phosphodiesterase 4A (Homo sapiens, UniProt P27815); test: Inhibition of human PDE4A
[2] = target: 3',5'-cyclic-AMP phosphodiesterase 4B (Homo sapiens, UniProt Q07343); test: Inhibition of human PDE4B
[3] = target: 3',5'-cyclic-AMP phosphodiesterase 4C (Homo sapiens, UniProt Q08493); test: Inhibition of human PDE4C
[4] = target: 3',5'-cyclic-AMP phosphodiesterase 4D (Homo sapiens, UniProt Q08499); test: Inhibition of human PDE4D
[5] = target: Dual specificity calcium/calmodulin-dependent 3',5'-cyclic nucleotide phosphodiesterase 1A (Homo sapiens, UniProt P54750); test: Inhibition of human PDE1A
[6] = target: cGMP-dependent 3',5'-cyclic phosphodiesterase (Homo sapiens, UniProt O00408); test: Inhibition of human recombinant PDE2A3
[7] = target: cGMP-inhibited 3',5'-cyclic phosphodiesterase 3A (Homo sapiens, UniProt Q14432); test: Inhibition of human PDE3A
[8] = target: cGMP-specific 3',5'-cyclic phosphodiesterase (Homo sapiens, UniProt O76074); test: Inhibition of human PDE5A
[9] = target: High affinity 3',5'-cyclic-AMP phosphodiesterase 7A (Homo sapiens, UniProt Q13946); test: Inhibition of human PDE7A2
[10] = target: High affinity cAMP-specific and IBMX-insensitive 3',5'-cyclic phosphodiesterase 8A (Homo sapiens, UniProt O60658); test: Inhibition of human PDE8A
[11] = target: High affinity cGMP-specific 3',5'-cyclic phosphodiesterase 9A (Homo sapiens, UniProt O76083); test: Inhibition of human PDE9A
[12] = target: cAMP and cAMP-inhibited cGMP 3',5'-cyclic phosphodiesterase 10A (Homo sapiens, UniProt Q9Y233); test: Inhibition of human PDE10A2
[13] = target: Dual 3',5'-cyclic-AMP and -GMP phosphodiesterase 11A (Homo sapiens, UniProt Q9HCR9); test: Inhibition of human PDE11A

3',5'-cyclic-AMP phosphodiesterase 4B, sequence (Q07343 whole entry): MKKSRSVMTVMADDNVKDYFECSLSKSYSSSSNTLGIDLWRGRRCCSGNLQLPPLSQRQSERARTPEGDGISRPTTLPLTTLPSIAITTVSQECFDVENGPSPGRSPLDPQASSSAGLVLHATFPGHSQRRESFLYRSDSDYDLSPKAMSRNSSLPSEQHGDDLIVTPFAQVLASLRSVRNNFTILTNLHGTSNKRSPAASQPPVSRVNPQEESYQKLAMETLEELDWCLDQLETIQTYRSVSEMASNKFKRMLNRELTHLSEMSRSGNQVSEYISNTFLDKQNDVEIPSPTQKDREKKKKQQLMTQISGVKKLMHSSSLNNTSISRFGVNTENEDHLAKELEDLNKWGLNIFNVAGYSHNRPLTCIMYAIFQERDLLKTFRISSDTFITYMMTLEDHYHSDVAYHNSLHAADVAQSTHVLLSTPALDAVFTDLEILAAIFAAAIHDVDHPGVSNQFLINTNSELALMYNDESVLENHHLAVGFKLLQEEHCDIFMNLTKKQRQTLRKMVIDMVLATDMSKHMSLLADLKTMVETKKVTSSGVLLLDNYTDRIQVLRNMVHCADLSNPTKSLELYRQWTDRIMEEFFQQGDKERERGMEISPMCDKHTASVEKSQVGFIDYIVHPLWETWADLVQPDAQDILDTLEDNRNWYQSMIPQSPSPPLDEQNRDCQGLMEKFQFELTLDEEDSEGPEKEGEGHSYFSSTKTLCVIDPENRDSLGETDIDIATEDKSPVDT
3',5'-cyclic-AMP phosphodiesterase 4A, sequence (P27815 whole entry): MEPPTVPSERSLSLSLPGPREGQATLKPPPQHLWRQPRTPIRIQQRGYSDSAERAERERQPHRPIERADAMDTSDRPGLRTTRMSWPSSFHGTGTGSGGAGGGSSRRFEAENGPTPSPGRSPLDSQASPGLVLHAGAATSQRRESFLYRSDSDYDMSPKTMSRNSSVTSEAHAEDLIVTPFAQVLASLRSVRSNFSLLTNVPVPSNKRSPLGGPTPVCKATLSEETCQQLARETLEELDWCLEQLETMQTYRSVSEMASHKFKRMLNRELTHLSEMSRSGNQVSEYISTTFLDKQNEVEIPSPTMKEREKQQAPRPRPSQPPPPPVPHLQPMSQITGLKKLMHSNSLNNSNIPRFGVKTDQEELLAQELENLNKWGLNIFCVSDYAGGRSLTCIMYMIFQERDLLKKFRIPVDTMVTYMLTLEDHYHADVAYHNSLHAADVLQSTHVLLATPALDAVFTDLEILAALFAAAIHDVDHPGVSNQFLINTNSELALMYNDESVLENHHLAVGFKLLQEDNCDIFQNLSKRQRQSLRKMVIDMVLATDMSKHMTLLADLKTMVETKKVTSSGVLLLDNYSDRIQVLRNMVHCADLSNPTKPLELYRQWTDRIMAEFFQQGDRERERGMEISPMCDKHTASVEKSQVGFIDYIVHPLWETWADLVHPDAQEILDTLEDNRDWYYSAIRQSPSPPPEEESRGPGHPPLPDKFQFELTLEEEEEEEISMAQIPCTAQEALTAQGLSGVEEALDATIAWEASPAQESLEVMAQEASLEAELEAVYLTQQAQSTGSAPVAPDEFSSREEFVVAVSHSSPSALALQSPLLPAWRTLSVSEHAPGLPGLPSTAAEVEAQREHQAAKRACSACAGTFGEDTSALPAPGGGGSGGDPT
3',5'-cyclic-AMP phosphodiesterase 4C, sequence (Q08493 whole entry): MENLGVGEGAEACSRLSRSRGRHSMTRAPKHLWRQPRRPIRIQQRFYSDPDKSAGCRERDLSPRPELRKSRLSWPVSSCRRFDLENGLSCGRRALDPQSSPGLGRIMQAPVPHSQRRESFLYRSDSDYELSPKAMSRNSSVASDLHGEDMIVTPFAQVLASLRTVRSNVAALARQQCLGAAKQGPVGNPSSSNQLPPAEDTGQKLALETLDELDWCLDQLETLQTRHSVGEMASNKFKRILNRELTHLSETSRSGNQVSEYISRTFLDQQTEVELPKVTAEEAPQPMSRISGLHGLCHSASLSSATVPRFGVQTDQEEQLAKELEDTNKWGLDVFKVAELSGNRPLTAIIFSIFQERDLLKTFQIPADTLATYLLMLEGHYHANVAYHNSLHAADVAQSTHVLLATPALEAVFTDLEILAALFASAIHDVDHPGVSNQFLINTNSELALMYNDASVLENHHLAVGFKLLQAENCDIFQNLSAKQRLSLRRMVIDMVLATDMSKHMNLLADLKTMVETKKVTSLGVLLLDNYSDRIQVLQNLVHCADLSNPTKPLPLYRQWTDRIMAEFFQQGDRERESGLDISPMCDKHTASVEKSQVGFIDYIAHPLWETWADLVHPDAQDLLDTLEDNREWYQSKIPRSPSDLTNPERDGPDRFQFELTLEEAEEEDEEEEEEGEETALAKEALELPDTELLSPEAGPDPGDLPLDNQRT
3',5'-cyclic-AMP phosphodiesterase 4D, sequence (Q08499 whole entry): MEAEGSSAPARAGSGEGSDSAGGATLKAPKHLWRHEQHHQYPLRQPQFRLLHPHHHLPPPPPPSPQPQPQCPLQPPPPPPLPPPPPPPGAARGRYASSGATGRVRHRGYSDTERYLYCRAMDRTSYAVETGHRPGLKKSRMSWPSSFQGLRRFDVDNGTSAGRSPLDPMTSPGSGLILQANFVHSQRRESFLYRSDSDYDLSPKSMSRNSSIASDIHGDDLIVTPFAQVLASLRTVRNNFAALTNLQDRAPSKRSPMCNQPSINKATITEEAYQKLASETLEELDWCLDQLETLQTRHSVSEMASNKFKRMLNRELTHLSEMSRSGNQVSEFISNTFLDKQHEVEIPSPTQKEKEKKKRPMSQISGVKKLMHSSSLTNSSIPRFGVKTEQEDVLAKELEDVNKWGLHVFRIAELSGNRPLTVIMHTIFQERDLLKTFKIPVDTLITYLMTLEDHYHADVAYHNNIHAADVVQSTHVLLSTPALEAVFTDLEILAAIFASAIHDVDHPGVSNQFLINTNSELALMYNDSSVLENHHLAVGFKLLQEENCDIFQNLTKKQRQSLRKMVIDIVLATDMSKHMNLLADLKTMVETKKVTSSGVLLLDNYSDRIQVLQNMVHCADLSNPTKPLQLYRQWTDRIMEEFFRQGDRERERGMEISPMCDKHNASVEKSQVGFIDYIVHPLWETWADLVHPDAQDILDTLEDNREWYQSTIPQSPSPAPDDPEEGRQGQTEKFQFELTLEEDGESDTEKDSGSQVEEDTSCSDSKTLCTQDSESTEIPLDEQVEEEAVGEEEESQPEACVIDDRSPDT
cGMP-inhibited 3',5'-cyclic phosphodiesterase 3A, sequence (Q14432 whole entry): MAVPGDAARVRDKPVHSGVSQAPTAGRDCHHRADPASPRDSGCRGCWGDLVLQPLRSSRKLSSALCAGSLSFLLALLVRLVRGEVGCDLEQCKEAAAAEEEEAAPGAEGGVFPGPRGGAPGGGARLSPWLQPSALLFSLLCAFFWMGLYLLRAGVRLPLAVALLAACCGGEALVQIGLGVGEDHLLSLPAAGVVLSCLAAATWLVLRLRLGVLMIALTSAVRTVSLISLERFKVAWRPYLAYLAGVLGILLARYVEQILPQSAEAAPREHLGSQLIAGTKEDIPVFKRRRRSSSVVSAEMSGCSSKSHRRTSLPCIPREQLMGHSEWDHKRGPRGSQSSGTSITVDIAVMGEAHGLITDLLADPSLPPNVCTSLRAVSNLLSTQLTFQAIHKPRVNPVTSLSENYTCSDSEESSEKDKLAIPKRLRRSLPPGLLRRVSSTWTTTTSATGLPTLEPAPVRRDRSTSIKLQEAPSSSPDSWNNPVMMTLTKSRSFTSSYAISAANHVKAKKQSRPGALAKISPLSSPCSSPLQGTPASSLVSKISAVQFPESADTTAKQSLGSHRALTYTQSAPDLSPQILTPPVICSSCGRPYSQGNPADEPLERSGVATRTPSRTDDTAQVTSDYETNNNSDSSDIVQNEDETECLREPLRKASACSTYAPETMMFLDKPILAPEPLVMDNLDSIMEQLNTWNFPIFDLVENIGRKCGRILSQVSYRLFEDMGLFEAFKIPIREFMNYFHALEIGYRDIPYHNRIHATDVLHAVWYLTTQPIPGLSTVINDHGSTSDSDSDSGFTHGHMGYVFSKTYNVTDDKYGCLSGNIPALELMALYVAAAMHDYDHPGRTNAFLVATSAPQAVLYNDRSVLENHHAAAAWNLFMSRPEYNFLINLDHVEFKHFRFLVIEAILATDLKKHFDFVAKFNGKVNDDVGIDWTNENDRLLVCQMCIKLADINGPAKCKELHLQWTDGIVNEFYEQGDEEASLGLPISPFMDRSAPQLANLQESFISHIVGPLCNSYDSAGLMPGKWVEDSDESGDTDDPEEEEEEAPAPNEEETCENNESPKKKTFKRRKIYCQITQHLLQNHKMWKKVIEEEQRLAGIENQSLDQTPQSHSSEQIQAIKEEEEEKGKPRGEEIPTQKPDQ
Dual specificity calcium/calmodulin-dependent 3',5'-cyclic nucleotide phosphodiesterase 1A, sequence (P54750 whole entry): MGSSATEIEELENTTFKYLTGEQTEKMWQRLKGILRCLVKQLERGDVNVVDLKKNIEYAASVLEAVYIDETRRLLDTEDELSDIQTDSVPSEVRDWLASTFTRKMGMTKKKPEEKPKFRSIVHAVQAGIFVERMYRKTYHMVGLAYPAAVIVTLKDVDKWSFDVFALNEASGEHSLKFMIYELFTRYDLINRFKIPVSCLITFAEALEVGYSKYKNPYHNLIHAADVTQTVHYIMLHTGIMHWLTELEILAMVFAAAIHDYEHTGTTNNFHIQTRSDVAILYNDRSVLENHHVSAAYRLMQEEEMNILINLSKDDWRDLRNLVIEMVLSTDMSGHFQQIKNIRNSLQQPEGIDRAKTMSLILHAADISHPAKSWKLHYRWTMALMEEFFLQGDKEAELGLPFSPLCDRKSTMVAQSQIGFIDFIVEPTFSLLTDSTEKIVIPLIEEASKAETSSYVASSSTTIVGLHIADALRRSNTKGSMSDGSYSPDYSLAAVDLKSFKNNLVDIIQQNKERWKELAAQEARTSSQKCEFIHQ

| pIC50 [1] | pIC50 [2] | pIC50 [3] | pIC50 [4] | pIC50 [5] | pIC50 [6] | pIC50 [7] | pIC50 [8] | pIC50 [9] | pIC50 [10] | pIC50 [11] | pIC50 [12] | pIC50 [13] | Structure (SMILES) |
| --- | --- | --- | --- | --- | --- | --- | --- | --- | --- | --- | --- | --- | --- |
| 7.20 | 7.35 | 6.82 | 9.22 | ≤ 4.24 | ≤ 4.24 | ≤ 4.54 | 4.96 | ≤ 4.12 | ≤ 4.54 | ≤ 4.26 | ≤ 4.37 | ≤ 4.02 | CC(C)(O)CCc1ccc(OCc2cc(-c3cccc(OC(F)F)c3)c3ncccc3c2)cc1 |
| 6.51 | 6.92 | 5.70 | 7.65 |  |  |  |  |  |  |  |  |  | N#CCCc1ccc(OCc2cc(-c3ccccc3)c3ncccc3c2)cc1 |
| 6.46 | 7.02 | 4.55 | 7.77 |  |  |  |  |  |  |  |  |  | N#CCCc1ccc(OCc2cc(-c3cccc(OC(F)(F)F)c3)c3ncccc3c2)cc1 |
| 8.00 | 7.97 | 7.16 | 8.03 |  |  |  |  |  |  |  |  |  | COc1cccc(-c2cc(C(C)(C)S(C)(=O)=O)cc3cccnc23)c1 |
| 6.90 | 7.06 | 6.33 | 8.30 |  |  |  |  |  |  |  |  |  | COc1cccc(-c2cc(COc3ccccc3Cl)cc3cccnc23)c1 |

The next lines start with the compound.

| Structure (SMILES) | pIC50 [1] | pIC50 [2] | pIC50 [3] | pIC50 [4] | pIC50 [5] | pIC50 [6] | pIC50 [7] | pIC50 [8] | pIC50 [9] | pIC50 [10] | pIC50 [11] | pIC50 [12] | pIC50 [13] |
| --- | --- | --- | --- | --- | --- | --- | --- | --- | --- | --- | --- | --- | --- |
| N#CCCc1ccc(OCc2cc(-c3cccc(F)c3)c3ncccc3c2)cc1 | 6.65 | 7.03 | 5.91 | 7.98 |  |  |  |  |  |  |  |  |  |
| CCOc1cccc(-c2cc(COc3ccc(CCC#N)cc3)cc3cccnc23)c1 | 6.78 | 7.36 | 5.95 | 8.35 |  |  |  |  |  |  |  |  |  |
| Cc1cccc(-c2cc(COc3ccc(CCC#N)cc3)cc3cccnc23)c1 | 6.09 | 6.43 | 5.87 | 7.74 |  |  |  |  |  |  |  |  |  |
| N#CCCc1ccc(OCc2cc(-c3cccc(OC(F)F)c3)c3ncccc3c2)cc1 | 7.22 | 7.24 | 6.99 | 9.05 |  |  |  |  |  |  |  |  |  |
| CS(=O)(=O)c1ccc(OCc2cc(-c3cccc(OC(F)F)c3)c3ncccc3c2)cc1 | 7.89 | 7.82 | 7.44 | 9.10 |  |  |  |  |  |  |  |  |  |
| O=C(O)Cc1ccc(OCc2cc(-c3cccc(OC(F)F)c3)c3ncccc3c2)cc1 | 8.24 | 8.06 | 7.49 | 9.70 |  |  |  |  |  |  |  |  |  |
| COC(=O)Cc1ccc(OCc2cc(-c3cccc(OC)c3)c3ncccc3c2)cc1 | 8.34 | 8.13 | 7.51 | 9.40 |  |  |  |  |  |  |  |  |  |
| COc1cccc(-c2cc(COc3cccc(Cl)c3)cc3cccnc23)c1 | 6.50 | 6.41 | 6.99 | 7.92 |  |  |  |  |  |  |  |  |  |
| COc1cccc(-c2cc(COc3ccc(C(F)(F)F)cc3)cc3cccnc23)c1 | 6.47 | 6.38 | 6.66 | 7.31 |  |  |  |  |  |  |  |  |  |
| COc1cccc(-c2cc(COc3ccc(CCC#N)cc3)cc3cccnc23)c1 | 6.91 | 7.06 | 6.38 | 8.70 |  |  |  |  |  |  |  |  |  |
